Source: patent publication US20090312282A1, “Novel Low Molecular Weight Hyaluronic Acid and/or Salt Thereof, and Cosmetic Preparation, Pharmaceutical Composition, and Food Composition Each Using Same” (Q. P. Corporation, priority 2006, published 2009)

Tested on: hairless mice (Hos: HR-1)
Conditions: mouse, in vivo
Source text: In this test example, the low-molecular-weight hyaluronic acid according to the invention was percutaneously administered to a mouse to evaluate the percutaneous absorbability of the low-molecular-weight hyaluronic acid. Six-week-old (when the test was started) male hairless mice (Hos: HR-1) (purchased from Japan SLC Inc.) […] Specifically, the hyaluronic acid was labeled with a fluorescent substance by allowing a carboxylic acid group of the hyaluronic acid to react with DMEQ-hydrazide. […] The HPLC analysis conditions were as follows. • Analyzer: Waters 2690 470 • Column: Shodex suger KS807 (gel filtration column) • Column temperature: 40° C. • Flow rate: 0.5 mL/min • Injection amount: 20 microliters • Mobile phase: 0.003 mol/L phosphoric acid buffer containing 0.15 mol/L sodium chloride • Fluorescence analysis conditions: excitation wavelength: 365 nm, fluorescence wavelength: 447 nm […] It is considered that the peak was also detected in the test group 3 due to a fluorescent substance (e.g., vitamin, aromatic amino acid, and cholesterol) originally contained in the living body. […] The STD solution was analyzed by HPLC to determine the peak area.

fluorescence intensity (peak) in the skin compared with control group (test group 3) | Substance | amount of percutaneous absorption of hyaluronic acid (increase in hyaluronic acid per g of skin)
no significant difference | hyaluronic acid [Sample 2] | 
 | low-molecular-weight hyaluronic acid [Example 2] | increased with time when the sample attachment time was 1 to 3 hours, and almost reached equilibrium when the sample attachment time was 3 to 5 hours
